System: substance P receptor NK1
Assay: Binding (inhibition of fixation) of [125I]BH-SP to NK1 receptors in rat cortex, guinea pig ileum and human lymphoblastic cells
Experimental: The affinity of compounds for tachykinin receptors has been evaluated in vitro by a number of biochemical tests using radioligands: 1) Bonding of [^125 I]BH-SP (substance P labelled with iodine-125 using a Bolton-Hunter reagent) to NK1 receptors in the rat cortex, the guinea pig ileum and human lymphoblastic cells. The tests were carried out as described in X. Emonds et al., (Eur. J. Pharmacol., 1993, 250, 403-413).

Row | SMILES | antagonism of substance P receptor NK1
1 | CC(C)Oc1cccc(CC(=O)N(C)CC(CC[n+]2ccc(Cc3ccccc3)cc2)c2ccc(Cl)c(Cl)c2)c1 (centres unmarked) [Example 2, 4-benzyl-1-[3-(3,4-dichlorophenyl)-4)-4-[N-methyl-(3-iso-propyloxyphenyl)acetylamino]butyl]pyridinium methanesulfonate dihydrate] | powerful antagonists
2 | CC(C)Oc1cccc(CC(=O)N2CCCC(CC[n+]3ccc(Cc4ccccc4)cc3)(c3ccc(Cl)c(Cl)c3)C2)c1.O.O.[Cl-] (centres unmarked) [Example 4, 4-benzyl-1-[2-[3-(3,4-dichlorophenyl)-1-[(3-isopropoxyphenyl)-acetyl]piperidin-3-yl]ethyl]pyridinium chloride dihydrate] | powerful antagonists

From patent publication US5665886A, “Salts of substituted nitrogenous heteroaromatic compounds, a process for their preparation and pharmaceutical compositions containing them” (Sanofi, priority 1994, dated 1997)
